Test system: cardiac gene expression
Experiment: Microarray analysis of cardiac gene expression (GeneChip Mouse Genome 430 2.0)
Format: in vivo, mice
Experimental: Microarray Sample Preparation and Analysis. Animal hearts were rapidly removed, and the atria and right ventricles were cut and immediately plunged into TRIzol Reagent (Life Technologies). Total RNA was isolated following the manufacturer's instructions, purified by phenol-chloroform extraction and then ethanol precipitation, and 20 μg further processed for microarray analysis. Briefly, cDNA synthesis, in vitro transcription, and labeling and fragmentation to produce the oligonucleotide probes were performed as instructed by the GeneChip manufacturer (Affymetrix). The probes were first hybridized to a test array (Affymetrix) and then to the GeneChip Mouse Genome 430 2.0 Array, using the GeneChip Hybridization Oven 640. The chips were washed in a GeneChip Fluidics Station 450 (Affymetrix), and the results were visualized with a GeneChip G7 scanner (Affymetrix). RMA normalization, pairwise comparisons, Student's t test and Benjamini and Hochberg correction were subsequently performed using GeneSifter (VizX Labs, Seattle, Wash.) and Spotfire DecisionSite 8.3 (Spotfire, Inc., Somerville, Mass.).
Effects on Gene Expression Profile. […] One mouse heart was used for each array, and was performed in triplicate, generating a total of 12 arrays. GeneSifter was used to perform RMA normalization, pairwise comparisons of averaged signal intensity values, and Student's t-test with Benjamini and Hochberg correction, and Spotfire was used to perform pairwise comparisons. […] Additionally, genes that were altered between any two N or cardiac hypertrophy samples were removed, as these alterations most likely represented normal variations between mice.

[1] = CH vs drug-treated isoproterenol mice

## C[C@H]1c2cccc(O)c2C(=O)C2=C(O)[C@]3(O)C(=O)C(C(N)=O)=C(O)[C@@H](N(C)C)[C@@H]3[C@@H](O)[C@@H]21 [doxycycline]
[1]
  Number of Altered Genes, Average FC (1.5-fold): 2929
  Number of Altered Genes, Average FC (2-fold): 417
  Number of Altered Genes, Minus disease variability: 578
  Number of Altered Genes, Minus natural variability: 994
  Number of Altered Genes, Reproducible: 497
  Number of Altered Genes, Student's t test: 2274
CH vs drug-treated isoproterenol mice, Benjamini and Hochberg
  Number of Altered Genes, Correction: 2034
CH vs drug-treated isoproterenol mice, of 779 genes altered N vs CH, altered in the reverse direction
  Number of Altered Genes, Disease-specific: 327
GenBank AA419994, vs mice given only isoproterenol
  FC EST: −1.7
GenBank AA796766, vs mice given only isoproterenol
  FC Metallothionein 2 (Mt2): −5.5
GenBank AB006361, vs mice given only isoproterenol
  FC Prostaglandin D synthetase (Ptgds): −2.0
GenBank AF065162, vs mice given only isoproterenol
  FC Potassium channel, subfamily K, member 3 (Kcnk3): 1.7
GenBank AF128196, vs mice given only isoproterenol
  FC Small inducible cytokine A9 (Scya9) (Ccl9) (Mip-1[…]): −2.0
GenBank AF162713, vs mice given only isoproterenol
  FC Group V phospholipase A2 (Pla2g5): 2.2
GenBank AF180518, 1st listing, vs mice given only isoproterenol
  FC GABA-A receptor-associated protein-like protein 1 (Gabarapl1): −3.6
GenBank AF180518, 2nd listing, vs mice given only isoproterenol
  FC GABA-A receptor-associated protein-like protein 1 (Gabarapl1): −3.1
GenBank AF185285, heart, drug + isoproterenol vs isoproterenol-only mice, CH vs normal FC 2.2
  FC Toll-like receptor 4 (TLR4): −1.9 fold
GenBank AF201289, heart, drug + isoproterenol vs isoproterenol-only mice, CH vs normal FC 2.7
  FC TSC22-related inducible leucine zipper 3c (Tilz3c) (Dsip1): −2.3 fold
GenBank AF208292, vs mice given only isoproterenol
  FC Homeodomain interacting protein kinase 2 (Hipk2): 1.9
GenBank AF332060, vs mice given only isoproterenol
  FC Cytochrome b-5 reductase (Cyb5r3): 1.7
GenBank AF384055, heart, drug + isoproterenol vs isoproterenol-only mice, CH vs normal FC −1.6
  FC Transcription factor myocardin (Myocd): 4.0 fold
GenBank AF391192, vs mice given only isoproterenol
  FC F-box-WD40 repeat protein 6 (Fbxw6): 2.9
GenBank AF441120, vs mice given only isoproterenol
  FC F-box only protein 32 (Fbxo32): −3.3
GenBank AI098139, vs mice given only isoproterenol
  FC FK506 binding protein 5 (51 kDa) (Fkbp5): −4.1
GenBank AI326984, vs mice given only isoproterenol
  FC Myosin binding protein C, fast-type (Mybpc2): −3.2
GenBank AI451467, vs mice given only isoproterenol
  FC Heparan sulfate 2-O-sulfotransferase 1 (Hs2st1): 2.2
GenBank AI467657, 1st listing, vs mice given only isoproterenol
  FC EST: −1.9
GenBank AI467657, 2nd listing, vs mice given only isoproterenol
  FC EST: −1.6
GenBank AI480750, vs mice given only isoproterenol
  FC EST: 1.7
GenBank AI481797, vs mice given only isoproterenol
  FC Interferon activated gene 205 (Ifi205): −2.2
GenBank AI503166, vs mice given only isoproterenol
  FC Protein tyrosine phosphatase, receptor-type, F interacting protein, binding protein 2 (Ppfibp2): −2.0
GenBank AI647687, vs mice given only isoproterenol
  FC Dipeptidase 1 (Dpep1): −2.0
GenBank AI835088, vs mice given only isoproterenol
  FC Homocysteine-inducible, endoplasmic reticulum stress-inducible, ubiquitin-like domain member 1 (Herpud1): −3.0
GenBank AK002700, vs mice given only isoproterenol
  FC Sulfotransferase family 1A, phenol-preferring, member 1 (Sult1a1): −3.7
GenBank AK003305, vs mice given only isoproterenol
  FC GPI-ahored HDL-binding protein 1 (Gpihbp1): −1.8
GenBank AK003461, vs mice given only isoproterenol
  FC Ets variant gene 5 (Etv5): −2.0
GenBank AK004331, vs mice given only isoproterenol
  FC Peptidylprolyl isomerase (cyclophilin)-like 1 (Ppil1): 1.8
GenBank AK004726, vs mice given only isoproterenol
  FC Extra cellular link domain-containing 1 (Xkd1): −1.8
GenBank AK004781, vs mice given only isoproterenol
  FC SRY-box containing gene 17 (Sox17): −1.6
GenBank AK005158, vs mice given only isoproterenol
  FC Phospholipase A2 group VII (platelet-activating factor acetylhydrolase, plasma) (Pla2g7): −2.2
GenBank AK007371, 1st listing, vs mice given only isoproterenol
  FC Methyl-CpG binding domain protein 1 (Mbd1): −2.5
GenBank AK007371, 2nd listing, vs mice given only isoproterenol
  FC Methyl-CpG binding domain protein 1 (Mbd1): −2.0
GenBank AK009007, vs mice given only isoproterenol
  FC Homeobox only domain (Hod): 1.5
GenBank AK012109, vs mice given only isoproterenol
  FC F-box and leucine-rich repeat protein 20 (Fbxl20): −2.0
GenBank AK012530, vs mice given only isoproterenol
  FC Dual specificity phosphatase 4 (Dusp4): −2.4
GenBank AK012748, vs mice given only isoproterenol
  FC Hydroxyacylglutathione hydrolase-like (Haghl): 2.0
GenBank AK015134, vs mice given only isoproterenol
  FC Leucine-rich repeat-containing 52 (Lrrc52): −2.6
GenBank AK016616, vs mice given only isoproterenol
  FC Sphingosine kinase 2 (Sphk2): 1.5
GenBank AK017926, vs mice given only isoproterenol
  FC DNA-damage-inducible transcript 4 (Ddit4): −5.6
GenBank AK018314, vs mice given only isoproterenol
  FC Kelch-like 24 (Khl24): −2.1
GenBank AK019530, heart, drug + isoproterenol vs isoproterenol-only mice, CH vs normal FC −2.1
  FC Transforming, acidic coiled-coil containing protein (Tacc1): 3.2 fold
GenBank AK020120, vs mice given only isoproterenol
  FC Protein arginine N-methyltransferase 1 (Prmt1): 1.8
GenBank AK021220, vs mice given only isoproterenol
  FC Hydroxyacylglutathione hydrolase-like (Haghl): 1.8
GenBank AU015378, vs mice given only isoproterenol
  FC Phosphodiesterase 7A (Pde7a): −2.2
GenBank AV016566, vs mice given only isoproterenol
  FC p53 regulated PA26 nuclear protein (Sestrin 1) (Sesn1): −2.3
GenBank AV032877, vs mice given only isoproterenol
  FC EST: −1.5
GenBank AV117919, vs mice given only isoproterenol
  FC Ectonucleoside triphosphate diphosphohydrolase 1 (Entpd1): −2.1
GenBank AV120094, vs mice given only isoproterenol
  FC F-box and leucine-rich repeat protein 20 (Fbxl20): −1.5
GenBank AV152953, heart, drug + isoproterenol vs isoproterenol-only mice, CH vs normal FC 4.4
  FC Transthyretin (Ttr): −2.8 fold
GenBank AV244484, vs mice given only isoproterenol
  FC Solute carrier family 10 (sodium/bile acid cotransporter family), member 6 (Slc10a6): −5.3

Source: US20080305186A1, “Method and Composition for the Treatment of Cardiac Hypertrophy” (BOARD OF REGENTS, THE UNIVERSITY OF TEXAS SYSTEM, priority 2007, published 2008)
